Data: patent US5936088A, “Substituted azacyclic or azabicyclic compounds with affinity and selectivity for nicotinic cholinergic receptors” (Novo Nordisk A/S, priority 1995, dated 1999)
Counter-ions that a name gives are not always drawn. Like-named read-outs stand apart in the source and are kept apart here.

Legend:
[1] = biological target: T1, nicotinic acetylcholine receptors (Rattus norvegicus, UniProt P09483+P12390); assay: inhibition of specific binding of ^3 H-methylcarbamylcholine (^3 H-MCC); conditions: for IC50: rat cortical receptors, ^3 H-MCC 2 nM, 0° C., 60 min
T1 construct: Fresh or frozen rat, brain tissue (hippocampus or cortex) was homogenized; from tissue
T1 sequence (P09483 31-630): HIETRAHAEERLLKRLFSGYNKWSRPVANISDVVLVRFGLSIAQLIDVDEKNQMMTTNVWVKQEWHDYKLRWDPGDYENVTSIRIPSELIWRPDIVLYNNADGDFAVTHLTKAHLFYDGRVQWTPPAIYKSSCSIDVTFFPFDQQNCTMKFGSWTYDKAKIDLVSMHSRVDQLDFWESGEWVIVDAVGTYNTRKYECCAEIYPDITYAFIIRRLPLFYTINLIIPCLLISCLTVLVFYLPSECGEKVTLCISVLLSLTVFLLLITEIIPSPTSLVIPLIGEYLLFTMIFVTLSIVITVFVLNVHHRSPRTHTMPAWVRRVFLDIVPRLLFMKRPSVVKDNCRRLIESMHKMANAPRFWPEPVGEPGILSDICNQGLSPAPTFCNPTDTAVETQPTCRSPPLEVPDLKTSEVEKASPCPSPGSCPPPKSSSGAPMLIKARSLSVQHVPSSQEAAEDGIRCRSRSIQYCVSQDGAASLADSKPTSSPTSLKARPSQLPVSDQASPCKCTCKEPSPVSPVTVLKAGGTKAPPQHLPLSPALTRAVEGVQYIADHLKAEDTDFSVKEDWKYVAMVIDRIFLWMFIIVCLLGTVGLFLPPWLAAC
T1 sequence (P12390 25-500): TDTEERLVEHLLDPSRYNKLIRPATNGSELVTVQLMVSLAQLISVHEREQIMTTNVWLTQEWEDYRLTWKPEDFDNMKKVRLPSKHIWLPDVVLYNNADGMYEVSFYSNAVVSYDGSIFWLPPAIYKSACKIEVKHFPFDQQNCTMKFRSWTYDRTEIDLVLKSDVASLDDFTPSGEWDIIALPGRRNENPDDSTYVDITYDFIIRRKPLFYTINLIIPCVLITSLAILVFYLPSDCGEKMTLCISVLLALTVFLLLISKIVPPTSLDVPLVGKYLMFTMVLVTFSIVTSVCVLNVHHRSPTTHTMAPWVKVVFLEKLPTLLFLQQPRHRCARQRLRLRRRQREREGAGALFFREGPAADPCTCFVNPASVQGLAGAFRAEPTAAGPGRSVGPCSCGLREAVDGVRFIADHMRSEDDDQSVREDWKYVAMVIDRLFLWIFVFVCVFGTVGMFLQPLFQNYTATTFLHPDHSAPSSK
Excerpt: The pharmacological properties of the compounds of the invention can be illustrated by determining their capability to inhibit the specific binding of ^3 H-methylcarbamylcholine (^3 H-MCC) (Abood and Grassi, Biochem. Pharmacol., Vol. 35, pp. 4199-4202, (1986)).
^3 H-MCC labels the nicotinic receptors in the CNS. The inhibitory effect on ^3 H-MCC binding reflects the affinity for nicotinic acetylcholine receptors.
Fresh or frozen rat, brain tissue (hippocampus or cortex) was homogenized in assay buffer (50 mM Tris-HCl, pH 7.4, 120 mM NaCl, 5 mM KCl, 2 mM CaCl2, 1 mM MgCl2) and centrifuged for 10 min. at 40.000×g. Pellets were subsequently reconstituted in assay buffer and an appropriate amount of tissue sample was mixed in tubes with ^3 H-methylcarbamylcholine (NEN, NET-951; final concentration 2 nM) and test drug. The tubes were incubated at 0° C. for 60 min. Unbound ligand was separated from bound ligand by vacuum filtration through GF/B filters presoaked in 0.5% polyethylenimine. Filters were washed three times with 5 ml wash buffer (50 mM Tris-HCl, pH 7.4) and transferred to vials. 4 ml scintillation fluid was added and the radioactivity was measured by scintillation counting. Unspecific binding was measured with 10 μM nicotine.
The IC50 values of the test compounds were determined by nonlinear regression analyses (GraphPad InPlot).
Table I illustrates the affinity of the compounds of the present invention for nicotinic and muscarinic receptors as determined by ^3 H-MCC and ^3 H-Oxo binding to rat cortical receptors. The compounds, however, show selective affinity for nicotinic receptors as compared to muscarinic receptors, i.e OXO/MCC>1.

[2] = biological target: muscarinic acetylcholine receptors; assay: inhibition of specific binding of ^3 H-Oxotremorine-M (^3 H-Oxo); conditions: rat cortical receptors; ^3 H-Oxotremorine 1.0 nM, 25° C., 30 min
Excerpt: Furthermore, the pharmacological properties of the compounds of the invention can also be illustrated by determining their capability to inhibit the specific binding of ^3 H-Oxotremorine-M (^3 H-Oxo). Birdsdall N. J. M., Hulme E. C., and Burgen A. S. V. (1980). "The Character of Muscarinic Receptors in Different Regions of the Rat Brain". Proc. Roy. Soc. London (Series B) 207,1.
^3 H-Oxo labels muscarinic receptor in the CNS (with a preference for agonist domains of the receptors). Three different sites are labelled by ^3 H-Oxo. […] Using the present experimental conditions only the high and medium affinity sites are determined.
The inhibitory effects of compounds on ^3 H-Oxo binding reflects the affinity for muscarinic acetylcholine receptors.
All preparations are performed at 0-4° C. unless otherwise indicated. […]
The final pellet is homogenized in 20 mM Hepes pH: 7.4 (100 ml per g of original tissue) and used for binding assay. […] Non-specific binding is determined in triplicate using arecoline (1 ug/ml, final concentration) as the test substance. […] The amount of radioactivity on the filters are determined by conventional liquid scintillation counting. […]
Table I illustrates the affinity of the compounds of the present invention for nicotinic and muscarinic receptors as determined by ^3 H-MCC and ^3 H-Oxo binding to rat cortical receptors. […]

[3] = biological target: muscarinic acetylcholine receptors; conditions: read-out: affinity of ^3 H-Oxo labelled site, cited from earlier work
cognition = conditions: age related; cited from earlier work
attention and memory = conditions: healthy humans and Alzheimer's disease patients; cited from earlier work
substantia nigra = conditions: chronic nicotine; lesioning; cited from earlier work
dopaminergic effects = conditions: various behavioral models; cited from earlier work
[4] = test system: dopamine release in the nucleus accumbens; conditions: nucleus accumbens versus striatum; cited from earlier work
Tourette's syndrome = conditions: in vivo; cited from earlier work

CC(=O)/C=C1\CN2CCC1CC2.O=C(O)C(=O)O [Compound 1, (Z)-3-Acetylmethylene-1-azabicyclo[2.2.2]octane oxalate]
IC50 [1]: 23 nM
Oxo/MCC Ratio ([1]; selectivity nicotinic versus muscarinic: ^3 H-Oxo IC50 / ^3 H-MCC IC50): 52
IC50 [2]: 1200 nM

CC(=O)/C=C1/CN2CCC1CC2 [Compound 2, (E)-3-Acetylmethylene-1-azabicyclo[2.2.2]octane oxalate]
IC50 [1]: > 300 nM
IC50 [2]: < 1000 nM

C[N+](C)(C)CC#CCN1CCCC1=O [^3 H-Oxo, ^3 H-Oxotremorine-M]
Kd ([3]; high affinity site): 1.8 nM
Kd ([3]; medium affinity site): 20 nM
Kd ([3]; third (lowest affinity) site, not determined under the present conditions): 3000 nM

CNC1(C)C2CCC(C2)C1(C)C (centres unmarked) [mecamylamine]
cognitive impairment (cognition): shown to cause cognitive impairment in an age related way

CN1CCCC1c1cccnc1 (centres unmarked) [nicotine]
attention and memory (attention and memory): improved attention and memory in healthy humans
protection against cell loss in the substantia nigra (substantia nigra): may protect against cell loss in the substantia nigra caused by lesioning
potentiation of dopaminergic effects (dopaminergic effects): will potentiate dopaminergic effects in various behavioral models
stimulation of dopamine release [4]: stimulates dopamine release in the nucleus accumbens more potently than in striatum
effects in Tourette's syndrome (Tourette's syndrome): shown beneficial effects in Tourette's syndrome
